{"source": "patent US11369654B2", "about": "“Application method of Dendrobium candidum in preparing medicine for treating hypertension” (Hangzhou Danhe Pharmaceutical CO., Ltd., priority 2017, dated 2022)", "key": {"[1]": {"test_system": "Spontaneously Hypertensive Rats (SHR)", "assay": "Experiment 4: antihypertensive effect of the sample of Example 1 on SHR", "format": "in vivo, rat", "experimental": "Rats: Spontaneously Hypertensive Rats (SHR), Wistar rats were used as normal controls.\nRat Blood Pressure Measurement: BP-98A Non-invasive Tail Artery Blood Pressure Meter, Japan Soft Rotation Co., Ltd.\n(§1) Group therapy is described in the following description. Blood pressure and body weight are measured and grouped after one week of adaptive feeding in all rats. […] Eight rats in each group are treated for 2 weeks.\n(§2) The following description describes the blood pressure measurement. The rats are preheated at 38° C. for 5-10 minutes to avoid blood flow in the tail of the rat. The blood pressure of the rats is measured three times in a waking and quiet state, and the average value of three times is used as the blood pressure of the rats. Blood pressure is measured twice a week, once 2 hours after administration and once 24 hours after administration, to observe the immediate antihypertensive effect and after 24 hours antihypertensive effect (and the peak-to-valley ratio).\n(§3) The following description discusses the trough-peak ratio calculation of depressurization amplitude. The difference of blood pressure before treatment minus 24 hours after administration is the trough of the range of blood pressure reduction, which is the lowest point before the next administration; the difference of blood pressure before treatment and 2 hours after administration is the peak value of blood pressure reduction, that is, the maximum point of blood pressure reduction after administration. Valley value of depressurization amplitude divided by peak value of depressurization amplitude is equal to valley-peak ratio of depressurization amplitude."}, "[2]": {"test_system": "Spontaneously Hypertensive Rats (SHR)", "assay": "Experiment 5: antihypertensive effect of the sample of Example 2 on SHR", "format": "in vivo, rat", "experimental": "Rats: Spontaneously Hypertensive Rats (SHR), Wistar rats are used as normal controls.\nRat Blood Pressure Measurement: BP-98A Non-invasive Tail Artery Blood Pressure Meter, Japan Soft Rotation Co., Ltd\nas §1\nas §2, with “description discussed with” for “description describes”, “times was” for “times is”\nas §3, with “discusses with” for “discusses”"}, "[3]": {"conditions": "2 h after administration, treatment for 1 week, medium dose 0.8 g/kg crude drug, amlodipine 0.5 mg/kg"}, "[4]": {"conditions": "2 h after administration, treatment for 2 weeks, medium dose 0.8 g/kg crude drug, amlodipine 0.5 mg/kg"}, "[5]": {"conditions": "24 h after administration, treatment for 1 week, medium dose 0.8 g/kg crude drug, amlodipine 0.5 mg/kg"}, "[6]": {"conditions": "24 h after administration, treatment for 2 weeks, medium dose 0.8 g/kg crude drug, amlodipine 0.5 mg/kg"}, "[7]": {"conditions": "before treatment, medium dose group 0.8 g/kg crude drug, amlodipine group 0.5 mg/kg"}, "[8]": {"conditions": "treatment for 1 week, medium dose 0.8 g/kg crude drug, amlodipine 0.5 mg/kg"}, "[9]": {"conditions": "treatment for 2 weeks, medium dose 0.8 g/kg crude drug, amlodipine 0.5 mg/kg"}}, "note": "Values joined by “and” are separate entries in the source; they are usually repeats but may differ in a detail not shown here. Equal entries are not always repeated.", "data": [{"smiles": "CCOC(=O)C1=C(COCCN)NC(C)=C(C(=O)OC)C1c1ccccc1Cl", "note": "(centres unmarked) [Amlodipine, amlodipine besylate]", "values": [{"measurement": "diastolic blood pressure", "setting": "[1]; [3]", "result": 145.9, "unit": "mmHg"}, {"measurement": "systolic blood pressure", "setting": "[1]; [3]", "result": "176.7 ± 7.42", "unit": "mmHg"}, {"measurement": "diastolic blood pressure", "setting": "[1]; [4]", "result": 144.8, "unit": "mmHg"}, {"measurement": "systolic blood pressure", "setting": "[1]; [4]", "result": "178.7 ± 5.64", "unit": "mmHg"}, {"measurement": "diastolic blood pressure", "setting": "[1]; [5]", "result": 156.5, "unit": "mmHg"}, {"measurement": "systolic blood pressure", "setting": "[1]; [5]", "result": 202.6, "unit": "mmHg"}, {"measurement": "diastolic blood pressure", "setting": "[1]; [6]", "result": 157.3, "unit": "mmHg"}, {"measurement": "systolic blood pressure", "setting": "[1]; [6]", "result": 204.9, "unit": "mmHg"}, {"measurement": "diastolic blood pressure", "setting": "[1]; [7]", "result": 158.2, "unit": "mmHg"}, {"measurement": "systolic blood pressure", "setting": "[1]; [7]", "result": "211.7 ± 7.57 mmHg and 211.7 mmHg and 211.7 ± 17.57 mmHg"}, {"measurement": "2-hour hypotensive amplitude (peak of systolic blood pressure reduction)", "setting": "[1]; [8]", "result": 35.0, "unit": "mmHg"}, {"measurement": "24-hour hypotensive amplitude (trough of systolic blood pressure reduction)", "setting": "[1]; [8]", "result": 9.1, "unit": "mmHg"}, {"measurement": "valley-peak ratio of Systolic Blood Pressure Reduction", "setting": "[1]; [8]", "result": 0.26}, {"measurement": "2-hour hypotensive amplitude (peak of systolic blood pressure reduction)", "setting": "[1]; [9]", "result": 33.0, "unit": "mmHg"}, {"measurement": "24-hour hypotensive amplitude (trough of systolic blood pressure reduction)", "setting": "[1]; [9]", "result": 6.8, "unit": "mmHg"}, {"measurement": "valley-peak ratio of Systolic Blood Pressure Reduction", "setting": "[1]; [9]", "result": 0.21}, {"measurement": "diastolic blood pressure", "setting": "[2]; [3]", "result": 146.8, "unit": "mmHg"}, {"measurement": "systolic blood pressure", "setting": "[2]; [3]", "result": 178.2, "unit": "mmHg"}, {"measurement": "diastolic blood pressure", "setting": "[2]; [4]", "result": 148.5, "unit": "mmHg"}, {"measurement": "systolic blood pressure", "setting": "[2]; [4]", "result": 180.5, "unit": "mmHg"}, {"measurement": "diastolic blood pressure", "setting": "[2]; [5]", "result": 157.1, "unit": "mmHg"}, {"measurement": "systolic blood pressure", "setting": "[2]; [5]", "result": 203.5, "unit": "mmHg"}, {"measurement": "diastolic blood pressure", "setting": "[2]; [6]", "result": 157.6, "unit": "mmHg"}, {"measurement": "systolic blood pressure", "setting": "[2]; [6]", "result": 205.6, "unit": "mmHg"}, {"measurement": "diastolic blood pressure", "setting": "[2]; [7]", "result": 159.6, "unit": "mmHg"}, {"measurement": "systolic blood pressure", "setting": "[2]; [7]", "result": "212.7 mmHg and 212.7 ± 6.87 mmHg"}, {"measurement": "2-hour hypotensive amplitude (peak of systolic blood pressure reduction)", "setting": "[2]; [8]", "result": 34.5, "unit": "mmHg"}, {"measurement": "24-hour hypotensive amplitude (trough of systolic blood pressure reduction)", "setting": "[2]; [8]", "result": 9.2, "unit": "mmHg"}, {"measurement": "valley-peak ratio of Systolic Blood Pressure Reduction", "setting": "[2]; [8]", "result": 0.27}, {"measurement": "2-hour hypotensive amplitude (peak of systolic blood pressure reduction)", "setting": "[2]; [9]", "result": 32.2, "unit": "mmHg"}, {"measurement": "24-hour hypotensive amplitude (trough of systolic blood pressure reduction)", "setting": "[2]; [9]", "result": 7.1, "unit": "mmHg"}, {"measurement": "valley-peak ratio of Systolic Blood Pressure Reduction", "setting": "[2]; [9]", "result": 0.22}]}]}
